Test results reported in patent US9447038B2 (SANOFI, priority 2012, dated 2016).

The compounds below were run against human CXCR3-A receptor (Homo sapiens (Human), UniProt P49682) (assay: 125I-CXCL10 competition radioligand binding assay). Details: not given.
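Further: One-hour incubation of membranes with tracer, bound radioligand separated by glass fibre filtration, IC50 derived from four-parameter nonlinear fit of competition curves.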

human CXCR3-A receptor, sequence (P49682 whole entry): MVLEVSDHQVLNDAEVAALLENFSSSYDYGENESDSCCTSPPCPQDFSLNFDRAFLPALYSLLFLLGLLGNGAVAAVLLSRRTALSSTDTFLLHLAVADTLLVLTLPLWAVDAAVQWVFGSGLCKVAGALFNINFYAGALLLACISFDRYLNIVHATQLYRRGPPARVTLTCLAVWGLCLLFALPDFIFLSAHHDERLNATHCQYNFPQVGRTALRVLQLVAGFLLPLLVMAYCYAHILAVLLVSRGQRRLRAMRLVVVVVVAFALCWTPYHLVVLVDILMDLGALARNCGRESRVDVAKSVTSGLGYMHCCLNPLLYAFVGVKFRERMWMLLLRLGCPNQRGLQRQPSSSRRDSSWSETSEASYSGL

Structure (SMILES) | IC50
CCCCN(Cc1ccc(OCCN2C(=O)CCC2=O)c(OC)c1)C(CC(=O)O)c1ccc(Cl)cc1 (stereo not shown) [Example 38, 3-(Butyl-{4-[2-(2,5-dioxo-pyrrolidin-1-yl)-ethoxy]-3-methoxy-benzyl}-amino)-3-(4-chloro-phenyl)-propionic acid] | 45 nM

Same assay, conditions: displacement of 125I-CXCL10 from membranes of CHO cells expressing human recombinant CXCR3-A

Structure (SMILES) | IC50
Cc1cc(CN(CC2CCCCC2)[C@@H](CC(=O)O)c2ccc(Cl)cc2)ccc1OCCN1C(=O)CN(C)C1=O [Example 30, (S)-3-(4-Chloro-phenyl)-3-(cyclohexylmethyl-{3-methyl-4-[2-(3-methyl-2,5-dioxo-imidazolidin-1-yl)-ethoxy]-benzyl}-amino)-propionic acid] | 55 nM
CCN(Cc1ccc(OCCn2c(=O)ccn(C)c2=O)c(C)c1)C(CC(=O)O)c1ccc2c(c1)CCO2 (stereo not shown) [Example 154, 3-(2,3-Dihydro-benzofuran-5-yl)-3-(ethyl-{3-methyl-4-[2-(3-methyl-2,6-dioxo-3,6-dihydro-2H-pyrimidin-1-yl)-ethoxy]-benzyl}-amino)-propionic acid] | 58 nM
COc1cc(CN(CC2CCCC2)C(CC(=O)O)c2ccc(Cl)c(F)c2)ccc1SCCN1C(=O)CCC1=O (stereo not shown) [Example 190, 3-(4-Chloro-3-fluoro-phenyl)-3-(cyclopentylmethyl-{4-[2-(2,5-dioxo-pyrrolidin-1-yl)-ethylsulfanyl]-3-methoxy-benzyl}-amino)-propionic acid] | 62 nM
COc1cc(CN(CC2CCCC2)C(CC(=O)O)c2ccc(C)cc2)ccc1OCCN1C(=O)CCC1=O (stereo not shown) [Example 179, 3-(Cyclopentylmethyl-{4-[2-(2,5-dioxo-pyrrolidin-1-yl)-ethoxy]-3-methoxy-benzyl}-amino)-3-p-tolyl-propionic acid] | 91 nM
CC(C)CN(Cc1ccc(OCCN2C(=O)CCC2=O)c(F)c1)C(CC(=O)O)c1ccc(Cl)cc1 (stereo not shown) [Example 53, 3-(4-Chloro-phenyl)-3-({4-[2-(2,5-dioxo-pyrrolidin-1-yl)-ethoxy]-3-fluoro-benzyl}-isobutyl-amino)-propionic acid] | 125 nM
CCCN(Cc1ccc(OCCn2c(=O)ccn(C)c2=O)c(C)c1)C(CC(=O)O)c1ccc2c(c1)CCO2 (stereo not shown) [Example 155, 3-(2,3-Dihydro-benzofuran-5-yl)-3-({3-methyl-4-[2-(3-methyl-2,6-dioxo-3,6-dihydro-2H-pyrimidin-1-yl)-ethoxy]-benzyl}-propyl-amino)-propionic acid] | 529 nM
CCc1cc(CN(CC2CCC2)[C@@H](CC(=O)O)c2ccc(Cl)cc2)ccc1OCCN1C(=O)CCC1=O [Example 88, (S)-3-(4-Chloro-phenyl)-3-(cyclobutylmethyl-{4-[2-(2,5-dioxo-pyrrolidin-1-yl)-ethoxy]-3-ethyl-benzyl}-amino)-propionic acid] | 70 nM
Cc1cc(CN(CC(C)C)C2c3ccc(Cl)cc3CC2C(=O)O)ccc1OCCN1C(=O)CCC1=O (stereo not shown) [Example 174, 5-Chloro-1-({4-[2-(2,5-dioxo-pyrrolidin-1-yl)-ethoxy]-3-methyl-benzyl}-isobutyl-amino)-indan-2-carboxylic acid] | 800 nM
COc1cc(CN(CC2CC2)C(c2ccc(Cl)cc2)C(C)C(=O)O)ccc1OCCN1C(=O)CCC1=O (stereo not shown) [Example 187, 3-(4-Chloro-phenyl)-3-(cyclopropylmethyl-{4-[2-(2,5-dioxo-pyrrolidin-1-yl)-ethoxy]-3-methoxy-benzyl}-amino)-2-methyl-propionic acid] | 71 nM
CC(C)CN(Cc1ccc(OCCN2C(=O)CCC2=O)c(F)c1)C(CC(=O)O)c1ccc(Cl)c(Cl)c1 (stereo not shown) [Example 63, 3-(3,4-Dichloro-phenyl)-3-({4-[2-(2,5-dioxo-pyrrolidin-1-yl)-ethoxy]-3-fluoro-benzyl}-isobutyl-amino)-propionic acid] | 303 nM
O=C(O)CC(c1ccc(Cl)cc1)N(Cc1ccc(OCCN2C(=O)CCC2=O)c(F)c1)CC1CC1 (stereo not shown) [Example 51, 3-(4-Chloro-phenyl)-3-(cyclopropylmethyl-{4-[2-(2,5-dioxo-pyrrolidin-1-yl)-ethoxy]-3-fluoro-benzyl}-amino)-propionic acid] | 133 nM
CN1CC(=O)N(CCOc2ccc(CN(CC3CCCCC3)[C@H](CC(=O)O)c3ccc(Cl)cc3)cc2Cl)C1=O [Example 202, (R)-3-({3-Chloro-4-[2-(3-methyl-2,5-dioxo-imidazolidin-1-yl)-ethoxy]-benzyl}-cyclohexylmethyl-amino)-3-(4-chloro-phenyl)-propionic acid] | 810 nM
CCN(Cc1ccc(OCCN2C(=O)CCC2=O)c(OC)c1)C(C(=O)O)c1ccc(Cl)cc1 (stereo not shown) [Example 182, (4-Chloro-phenyl)-({4-[2-(2,5-dioxo-pyrrolidin-1-yl)-ethoxy]-3-methoxy-benzyl}-ethyl-amino)-acetic acid] | 3900 nM
CCCN(Cc1ccc(CCCN2C(=O)CCC2=O)c(OC)c1)C(CC(=O)O)c1ccc(Cl)cc1 (stereo not shown) [Example 133, 3-(4-Chloro-phenyl)-3-({4-[3-(2,5-dioxo-pyrrolidin-1-yl)-propyl]-3-methoxy-benzyl}-propyl-amino)-propionic acid] | 177 nM
CCCN(Cc1ccc(OCCN2C(=O)CCC2=O)c(OC)c1)C(CC(=O)O)c1ccc(Cl)c(F)c1 (stereo not shown) [Example 41, 3-(4-Chloro-3-fluoro-phenyl)-3-({4-[2-(2,5-dioxo-pyrrolidin-1-yl)-ethoxy]-3-methoxy-benzyl}-propyl-amino)-propionic acid] | 107 nM
CCc1cc(CN(CC(C)C)C(CC(=O)O)c2ccc(Cl)c(F)c2)ccc1OCCN1C(=O)CCC1=O (stereo not shown) [Example 92, 3-(4-Chloro-3-fluoro-phenyl)-3-({4-[2-(2,5-dioxo-pyrrolidin-1-yl)-ethoxy]-3-ethyl-benzyl}-isobutyl-amino)-propionic acid] | 66 nM
O=C(O)CC(c1ccc(Cl)cc1)N(Cc1ccc(OCCN2C(=O)CCC2=O)c(F)c1)CC1CCCC1 (stereo not shown) [Example 56, 3-(4-Chloro-phenyl)-3-(cyclopentylmethyl-{4-[2-(2,5-dioxo-pyrrolidin-1-yl)-ethoxy]-3-fluoro-benzyl}-amino)-propionic acid] | 52 nM
CCCCN(Cc1ccc(OCCN2C(=O)CCC2=O)c(CC)c1)C(CC(=O)O)c1ccc(Cl)c(Cl)c1 (stereo not shown) [Example 99, 3-(Butyl-{4-[2-(2,5-dioxo-pyrrolidin-1-yl)-ethoxy]-3-ethyl-benzyl}-amino)-3-(3,4-dichloro-phenyl)-propionic acid] | 120 nM
COc1cc(CN(CC2CC2)C(CC(=O)O)c2ccc(Cl)cc2Cl)ccc1OCCn1c(=O)ccn(C)c1=O (stereo not shown) [Example 156, 3-(Cyclopropylmethyl-{3-methoxy-4-[2-(3-methyl-2,6-dioxo-3,6-dihydro-2H-pyrimidin-1-yl)-ethoxy]-benzyl}-amino)-3-(2,4-dichloro-phenyl)-propionic acid] | 120 nM
Cc1cc(CN(CC2CCCCC2)C(CC(=O)O)c2ccc(Cl)c(F)c2)ccc1OCCN1C(=O)CCC1=O (stereo not shown) [Example 78, 3-(4-Chloro-3-fluoro-phenyl)-3-(cyclohexylmethyl-{4-[2-(2,5-dioxo-pyrrolidin-1-yl)-ethoxy]-3-methyl-benzyl}-amino)-propionic acid] | 72 nM
CCN(Cc1ccc(OCCN2C(=O)CCC2=O)c(C)c1)C(c1ccc(Cl)cc1)C(C)C(=O)O (stereo not shown) [Example 175, 3-(4-Chloro-phenyl)-3-({4-[2-(2,5-dioxo-pyrrolidin-1-yl)-ethoxy]-3-methyl-benzyl}-ethyl-amino)-2-methyl-propionic acid] | 266 nM
CCCN(Cc1ccc(OCCN2C(=O)CCC2=O)c(OC)c1)C(CC(=O)O)c1ccc(Cl)cc1 (stereo not shown) [Example 37, 3-(4-Chloro-phenyl)-3-({4-[2-(2,5-dioxo-pyrrolidin-1-yl)-ethoxy]-3-methoxy-benzyl}-propyl-amino)-propionic acid] | 20 nM
CCCN(Cc1ccc(OCCN2C(=O)CCC2=O)c(CC)c1)C(CC(=O)O)c1ccc(Cl)cc1 (stereo not shown) [Example 85, 3-(4-Chloro-phenyl)-3-({4-[2-(2,5-dioxo-pyrrolidin-1-yl)-ethoxy]-3-ethyl-benzyl}-propyl-amino)-propionic acid] | 58 nM
Cc1cc(CN(CC2CC2)C(CC(=O)O)c2ccc(Cl)cc2Cl)ccc1OCCN1C(=O)CCC1=O (stereo not shown) [Example 163, 3-(Cyclopropylmethyl-{4-[2-(2,5-dioxo-pyrrolidin-1-yl)-ethoxy]-3-methyl-benzyl}-amino)-3-(2,4-dichloro-phenyl)-propionic acid] | 162 nM
O=C(O)C[C@H](c1ccc(Cl)cc1)N(Cc1ccc(OCCN2C(=O)CCC2=O)c(F)c1)CC1CCC1 [Example 55, (R)-3-(4-Chloro-phenyl)-3-(cyclobutylmethyl-{4-[2-(2,5-dioxo-pyrrolidin-1-yl)-ethoxy]-3-fluoro-benzyl}-amino)-propionic acid] | 294 nM
CN1CC(=O)N(CCOc2ccc(CN(CC3CCCC3)[C@H](CC(=O)O)c3ccc(Cl)cc3)cc2Cl)C1=O [Example 201, (R)-3-({3-Chloro-4-[2-(3-methyl-2,5-dioxo-imidazolidin-1-yl)-ethoxy]-benzyl}-cyclopentylmethyl-amino)-3-(4-chloro-phenyl)-propionic acid] | 886 nM
CCc1cc(CN(CC2CC2)C(CC(=O)O)c2ccc(Cl)c(F)c2)ccc1OCCN1C(=O)CCC1=O (stereo not shown) [Example 90, 3-(4-Chloro-3-fluoro-phenyl)-3-(cyclopropylmethyl-{4-[2-(2,5-dioxo-pyrrolidin-1-yl)-ethoxy]-3-ethyl-benzyl}-amino)-propionic acid] | 50 nM
O=C(O)CC(c1ccc(Cl)c(F)c1)N(Cc1ccc(OCCN2C(=O)CCC2=O)c(F)c1)CC1CCCCC1 (stereo not shown) [Example 61, 3-(4-Chloro-3-fluoro-phenyl)-3-(cyclohexylmethyl-{4-[2-(2,5-dioxo-pyrrolidin-1-yl)-ethoxy]-3-fluoro-benzyl}-amino)-propionic acid] | 334 nM
COc1cc(CN(CC2CCCC2)C(CC(=O)O)c2ccc3c(c2)CCO3)ccc1CCCN1C(=O)CCC1=O (stereo not shown) [Example 139, 3-(Cyclopentylmethyl-{4-[3-(2,5-dioxo-pyrrolidin-1-yl)-propyl]-3-methoxy-benzyl}-amino)-3-(2,3-dihydro-benzofuran-5-yl)-propionic acid] | 54 nM
COc1cc(CN(CC2CC2)C(CC(=O)O)c2ccc(Cl)cc2)ccc1CCCN1C(=O)CCC1=O (stereo not shown) [Example 132, 3-(4-Chloro-phenyl)-3-(cyclopropylmethyl-{4-[3-(2,5-dioxo-pyrrolidin-1-yl)-propyl]-3-methoxy-benzyl}-amino)-propionic acid] | 192 nM
